Read-outs that look alike come from different tables or passages of the source.
Legend:
[1] = test system: patients with chronic non-cancer pain and OIC; test: SBM responder, phase 2b study 1107 V9221 (observed and PK/Efficacy logistic model); format: in vivo, human; conditions: for SBM responder, Observation / SBM responder, Prediction: 1107V9221 (Phase 2b); for SBM Non_Responder frequency / SBM Responder frequency: PK/efficacy population, 1107 V9221 (Phase 2b); for Predicted probability of SBM responder: Phase 2b model
Text: (§1) Exposure-response analysis was used to evaluate the efficacy and safety data of the phase 2b and phase 3 studies ([2],[5]). The PK/Efficacy analysis included the subjects of the population PK analysis or in the placebo group, who also had efficacy data for the exposure-response analysis obtained from phase 2b and phase 3 studies (1107 V9221, 1314 V9231, and 1315 V9232). The PK/Safety analysis included the subjects of the population PK analysis or in the placebo group, who also had safety data for exposure-response analysis obtained from phase 2b and phase 3 studies (1107 V9221, 1314 V9231, and 1315 V9232).
(§2) The following efficacy variables were used to evaluate the exposure-response relationship. […] In the phase 3 studies (Study No. 1314 V9231 and 1315 V9232), an SBM responder was defined as having 9 positive response weeks or more out of the 12-weeks treatment period and 3 positive response weeks out of the last 4 weeks of the 12-weeks treatment period. A positive response week was defined as a week with both ≥3 SBMs and an increase of ≥1 SBM from the baseline. A subject with any insufficient response data was treated as a “non-responder”. The occurrence of treatment-emergent adverse events of gastrointestinal disorders as system organ class, which was the most frequently occurring type, was defined by the severity and assessed as safety variables.
(§3) No covariate was tested in the exposure-response analysis because no prognostic factors of the efficacy or safety were identified in the phase 2b and phase 3 studies ([2],[5]). Efficacy and safety data in Study No. 1314 V9231 and 1315 V9232 were combined because these studies were conducted as pivotal phase 3 studies using the same study design and were of the same treatment duration. The individual AUCss values for naldemedine were estimated by empirical Bayes estimation based on the population PK model. AUCss values of the subjects in the placebo group were treated as zero (0). For efficacy (responder or non-responder) and safety (occurrence of gastrointestinal disorders or not) variables, relationships to PK parameters were examined using the logistic model as shown in Eq. (3) with SAS (Version 9.2, SAS Institute).3 Probabilityefficacy or safety event=1/1+exp−a−b×PKparameter where a and b are the parameters to be estimated.

[2] = test system: patients with chronic non-cancer pain and OIC; test: SBM responder, phase 3 studies 1314 V9231 and 1315 V9232 (observed and PK/Efficacy logistic model); format: in vivo, human; conditions: for Predicted probability of SBM responder: Phase 3 model
Text: as §1, §2, §3

[3] = test system: patients with chronic non-cancer pain and OIC; test: Adverse events / gastrointestinal disorders, phase 2b study 1107 V9221 (observed and PK/Safety logistic model); format: in vivo, human; conditions: for Gastrointestinal disorders, Mild / Gastrointestinal disorders, Moderate / Gastrointestinal disorders, Not_Reported / Gastrointestinal disorders, Severe: PK/safety population, 1107 V9221 (Phase 2b); for Predicted probability of gastrointestinal disorders: Phase 2b model; for Predicted probability of gastrointestinal disorders / Gastrointestinal disorders, Observation / Gastrointestinal disorders, Prediction: Moderate, Severe; for Gastrointestinal disorders, Observation / Gastrointestinal disorders, Prediction: Phase 2b
Text: as §1, §2, §3

[4] = test system: patients with chronic non-cancer pain and OIC; test: Adverse events / gastrointestinal disorders, phase 3 studies 1314 V9231 and 1315 V9232 (observed and PK/Safety logistic model); format: in vivo, human; conditions: for Predicted probability of gastrointestinal disorders: Phase 3 model
Text: as §1, §2, §3

[5] = parameters: method as in PMID 28466424, PMID 28960888; conditions: cited from earlier work
[6] = parameters: method as in earlier work; conditions: oral 2 mg [14C]-labeled naldemedine; cited from earlier work
[7] = test system: patients with chronic non-cancer pain and OIC; parameters: method as in PMID 28371937; conditions: Study 1107 V9221 (Phase 2b), cited from earlier work
[8] = 1314V9231 and 1315V9232 (Phase 3), 0.2 mg
[9] = PK/efficacy population, 1314 V9231 and 1315 V9232 (Phase 3), 0.2 mg
[10] = PK/safety population, 1314 V9231 and 1315 V9232 (Phase 3), 0.2 mg
[11] = Phase 3, Mild, Moderate, Severe, 0.2 mg
[12] = Phase 3, Moderate, Severe, 0.2 mg

Q: What does the source list for `CC(C)(NC(=O)C1=C(O)[C@@H]2Oc3c(O)ccc4c3[C@@]23CCN(CC2CC2)[C@H](C4)[C@]3(O)C1)c1nc(-c2ccccc2)no1` [naldemedine]?
A: predicted probability of SBM responders ([1]; 0.2 mg, phase 2b study 1107 V9221): 52.7%; SBM responder, Observation ([1]; 0.1 mg): 55.6; SBM responder, Prediction ([1]; 0.1 mg): 47.4; SBM responder, Observation ([1]; 0.2 mg): 66.7; SBM responder, Prediction ([1]; 0.2 mg): 52.7; SBM responder, Observation ([1]; 0.4 mg): 60.0; SBM responder, Prediction ([1]; 0.4 mg): 63.0; SBM Non_Responder frequency ([1]; 0.1 mg): 4 (44.4) Count (Percent); SBM Responder frequency ([1]; 0.1 mg): 5 (55.6) Count (Percent); SBM Non_Responder frequency ([1]; 0.2 mg): 3 (33.3) Count (Percent); SBM Responder frequency ([1]; 0.2 mg): 6 (66.7) Count (Percent); SBM Non_Responder frequency ([1]; 0.4 mg): 4 (40.0) Count (Percent); SBM Responder frequency ([1]; 0.4 mg): 6 (60.0) Count (Percent); Predicted probability of SBM responder ([1]; Dose: 0.1 mg): 0.474; Predicted probability of SBM responder ([1]; Dose: 0.2 mg): 0.527; Predicted probability of SBM responder ([1]; Dose: 0.4 mg): 0.630; predicted probability of SBM responders ([2]; 0.2 mg once daily, phase 2b and phase 3 studies): approximately 50%; predicted probability of SBM responders ([2]; 0.2 mg, phase 3 studies 1314 V9231 and 1315 V9232): 49.9%; SBM responder, Observation [2, 8]: 53.3; SBM responder, Prediction [2, 8]: 49.9; SBM Non_Responder frequency [2, 9]: 208 (46.7) Count (Percent); SBM Responder frequency [2, 9]: 237 (53.3) Count (Percent); Predicted probability of SBM responder ([2]; Dose: 0.1 mg): 0.433; Predicted probability of SBM responder ([2]; Dose: 0.2 mg): 0.499; Predicted probability of SBM responder ([2]; Dose: 0.4 mg): 0.630; Gastrointestinal disorders, Mild ([3]; 0.1 mg): 1 (11.1) Count (Row percent); Gastrointestinal disorders, Moderate ([3]; 0.1 mg): 1 (11.1) Count (Row percent); Gastrointestinal disorders, Not_Reported ([3]; 0.1 mg): 7 (77.8) Count (Row percent); Gastrointestinal disorders, Severe ([3]; 0.1 mg): 0 (0.0) Count (Row percent); Gastrointestinal disorders, Mild ([3]; 0.2 mg): 1 (11.1) Count (Row percent); Gastrointestinal disorders, Moderate ([3]; 0.2 mg): 3 (33.3) Count (Row percent); Gastrointestinal disorders, Not_Reported ([3]; 0.2 mg): 5 (55.6) Count (Row percent); Gastrointestinal disorders, Severe ([3]; 0.2 mg): 0 (0.0) Count (Row percent); Gastrointestinal disorders, Mild ([3]; 0.4 mg): 2 (20.0) Count (Row percent); Gastrointestinal disorders, Moderate ([3]; 0.4 mg): 1 (10.0) Count (Row percent); Gastrointestinal disorders, Not_Reported ([3]; 0.4 mg): 7 (70.0) Count (Row percent); Gastrointestinal disorders, Severe ([3]; 0.4 mg): 0 (0.0) Count (Row percent); Predicted probability of gastrointestinal disorders ([3]; Mild, Dose: 0.1 mg): 0.195; Predicted probability of gastrointestinal disorders ([3]; Mild, Dose: 0.2 mg): 0.254; Predicted probability of gastrointestinal disorders ([3]; Mild, Dose: 0.4 mg): 0.403; Predicted probability of gastrointestinal disorders ([3]; Dose: 0.1 mg): 0.078; Predicted probability of gastrointestinal disorders ([3]; Dose: 0.2 mg): 0.101; Predicted probability of gastrointestinal disorders ([3]; Dose: 0.4 mg): 0.165; Gastrointestinal disorders, Observation ([3]; Mild, 0.1 mg): 22.2; Gastrointestinal disorders, Prediction ([3]; Mild, 0.1 mg): 19.5; Gastrointestinal disorders, Observation ([3]; Mild, 0.2 mg): 44.4; Gastrointestinal disorders, Prediction ([3]; Mild, 0.2 mg): 25.4; Gastrointestinal disorders, Observation ([3]; Mild, 0.4 mg): 30.0; Gastrointestinal disorders, Prediction ([3]; Mild, 0.4 mg): 40.3; Gastrointestinal disorders, Observation ([3]; 0.1 mg): 11.1; Gastrointestinal disorders, Prediction ([3]; 0.1 mg): 7.8; Gastrointestinal disorders, Observation ([3]; 0.2 mg): 33.3; Gastrointestinal disorders, Prediction ([3]; 0.2 mg): 10.1; Gastrointestinal disorders, Observation ([3]; 0.4 mg): 10.0; Gastrointestinal disorders, Prediction ([3]; 0.4 mg): 16.5; predicted probability of severe gastrointestinal disorders ([4]; 0.2 mg and 0.4 mg, phase 3 study): less than 3%; predicted probability of severe gastrointestinal disorders ([4]; 0.2 mg once daily): less than 3%; predicted probability of mild to severe gastrointestinal disorders ([4]; 0.2 mg, phase 3): 19.3%; predicted probability of moderate to severe gastrointestinal disorders ([4]; 0.2 mg, phase 3): 8.3%; predicted probability of severe gastrointestinal disorders ([4]; 0.2 mg, phase 3): 1.8%; Gastrointestinal disorders, Mild [4, 10]: 52 (11.7) Count (Row percent); Gastrointestinal disorders, Moderate [4, 10]: 34 (7.6) Count (Row percent); Gastrointestinal disorders, Not_Reported [4, 10]: 351 (78.9) Count (Row percent); Gastrointestinal disorders, Severe [4, 10]: 8 (1.8) Count (Row percent); Gastrointestinal disorders, Observation [4, 11]: 21.1; Gastrointestinal disorders, Prediction [4, 11]: 19.3; Gastrointestinal disorders, Observation [4, 12]: 9.4; Gastrointestinal disorders, Prediction [4, 12]: 8.3; Gastrointestinal disorders, Observation ([4]; Phase 3, Severe, 0.2 mg): 1.8; Gastrointestinal disorders, Prediction ([4]; Phase 3, Severe, 0.2 mg): 1.8; Predicted probability of gastrointestinal disorders ([4]; Mild, Moderate, Severe, Dose: 0.1 mg): 0.172; Predicted probability of gastrointestinal disorders ([4]; Mild, Moderate, Severe, Dose: 0.2 mg): 0.193; Predicted probability of gastrointestinal disorders ([4]; Mild, Moderate, Severe, Dose: 0.4 mg): 0.242; Predicted probability of gastrointestinal disorders ([4]; Moderate, Severe, Dose: 0.1 mg): 0.071; Predicted probability of gastrointestinal disorders ([4]; Moderate, Severe, Dose: 0.2 mg): 0.083; Predicted probability of gastrointestinal disorders ([4]; Moderate, Severe, Dose: 0.4 mg): 0.113; Predicted probability of gastrointestinal disorders ([4]; Severe, Dose: 0.1 mg): 0.015; Predicted probability of gastrointestinal disorders ([4]; Severe, Dose: 0.2 mg): 0.018; Predicted probability of gastrointestinal disorders ([4]; Severe, Dose: 0.4 mg): 0.027; time dependence of PK ([5]; AUC Day 1 vs AUCss Day 10, multiple dose study): time-independent; dose proportionality of systemic exposure ([5]; dose range 0.1 mg to 100 mg): almost dose proportional; time to reach steady state ([5]; multiple dose study, 3 mg, 10 mg and 30 mg, trough Days 2 to 10): ≤ 2 days; total radioactivity excreted in feces [6]: 35 % of the administered dose; total radioactivity excreted in urine [6]: 57 % of the administered dose; proportion of SBM responders ([7]; 0.1 mg): 52.5%; proportion of SBM responders ([7]; 0.2 mg): 71.2%; proportion of SBM responders ([7]; 0.4 mg): 66.7%

Reference: paper PMC6182381, “Population Pharmacokinetics and Exposure-Response Relationships of Naldemedine” (Pharmaceutical Research, 2018)
